pKi: −log10 of the molar value.
What was measured:
RIN-m5F cells = assay: Inhibition of GLP-1 stimulated insulin release in RIN-m5F cells; assay type: cell-based; conditions: for GLP-1 induced insulin release: 3 nM GLP-1, 1 h, compounds 0.1 μM to 30 μM, FIG. 3
Method: The RIN-m5F cells were grown as in Example 2. The cells were plated in 96-well plates (10,000 per well) at a density of 2×10^5 cells per ml and grown for 3 days. The culture medium was changed the day before the experiment. On the day of the experiment, the medium was removed and replaced with serum-free RPMI 1640 containing 0.1% bovine serum albumin (serum-free medium). Dilutions of compounds prepared in serum-free medium from 10 mM DMSO stock solutions to give final concentrations from 0.1 μM to 30 μM were added. The cells were stimulated with 3 nM GLP-1 in a total volume of 200 μl for 1 h and the concentration of insulin in the medium was measured in an ELISA (Mercodia AB). The insulin release in the presence of medium was 6.3±1.4 ng/ml and 10.5±1.4 ng/ml in the presence of 3 nM GLP-1.

human GLP-1 receptor = target: T1, human GLP-1 receptor (Homo sapiens, UniProt P43220); assay: Inhibition of 125I-GLP-1 binding to human recombinant GLP-1 receptors (SPA); conditions: 125I-GLP-1, membranes of COS7 cells transfected with human GLP-1 receptor, Cheng-Prushoff equation; read-out: K1 value, inhibition of the binding of GLP-1 to its receptor
T1 construct: expressed in transfected cells; host or cells: COS7 cells (COShGLPr, clone #16)
Method: Wheatgerm agglutinin scintillation proximity assay (SPA) beads (500 mg) from Amersham (RPNQ 0001) were diluted into 50 ml of assay buffer (Assay buffer consisted of 150 mM NaCl, 10 mM MgCl2, 1 mM EDTA, and 20 mM HEPES, pH 7.4). The SPA beads were combined (1:1 v/v) with a crude membrane preparation from COS7 cells transfected with the human GLP-1 receptor at a concentration of 30 μg/ml/well. These cells (COShGLPr, clone #16) were grown in Dulbecco's Modified Eagle Medium with high glucose (DMEM Gibco, #11965-092) supplemented with 10% heat-inactivated fetal bovine serum (Gibco, #1600-044), 2 mM L-Glutamine (Gibco #25030-081), and 10 μg/ml Gentamicin (Gibco #15710-064) with 705 μg/ml Geneticin (G418 sulfate, Gibco) (DMEM complete). The mixture was incubated for two hours at room temperature with constant rotation. The free membranes were washed away by centrifuging the mixture for 5 minutes at 800 rpm in a table-top GLCl (Sorvall) centrifuge. The supernatant was discarded and the pellet was resuspended in 50 ml assay buffer+0.1% bovine serum albumin. […] The plates were counted approximately 10 h later in a Microbeta Trilux liquid scintillation counter (WALLAC). […] Binding constants (Ki) were calculated with the Cheng-Prushoff equation (Cheng Y C and Prushoff W H, Biochem Pharmacol 22:3099, 1973). […]

[1] = target: T2, endogenous GLP-1 receptor coupled to adenylate cyclase (Rattus norvegicus, UniProt P32301); assay: Inhibition of GLP-1 induced cAMP signaling in RIN-m5F insulinoma cells; assay type: cell-based; conditions: 3 nM GLP-1, 15 minutes, FIG. 2
T2 construct: host or cells: RIN-m5F insulinoma cells
T2 sequence (P32301 22-463): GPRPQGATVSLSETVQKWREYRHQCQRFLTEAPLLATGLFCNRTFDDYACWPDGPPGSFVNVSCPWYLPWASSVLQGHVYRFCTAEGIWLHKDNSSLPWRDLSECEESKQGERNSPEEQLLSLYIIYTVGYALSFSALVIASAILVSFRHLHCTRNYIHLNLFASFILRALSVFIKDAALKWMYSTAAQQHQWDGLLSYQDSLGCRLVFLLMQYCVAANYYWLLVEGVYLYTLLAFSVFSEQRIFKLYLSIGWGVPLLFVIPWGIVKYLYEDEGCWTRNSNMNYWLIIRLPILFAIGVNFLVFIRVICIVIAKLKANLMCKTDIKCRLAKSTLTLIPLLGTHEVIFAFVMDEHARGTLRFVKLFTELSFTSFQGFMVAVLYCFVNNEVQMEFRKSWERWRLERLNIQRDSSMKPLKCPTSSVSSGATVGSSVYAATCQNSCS
Method: The cells were obtained from the American Type Culture Collection (ATCC, #203641 F13132) and grown in RPMI 1640 (GIBCO, #21870-076) supplemented with 2 mM L-glutamine, 10% heat inactivated fetal bovine serum, and 10 μg/ml Gentamicin.
RIN-m5F cells were plated in 12 well plates at a density of 2.0×10^5 cells per ml and grown for 4 days in complete RPMI 1640 with 10% fetal bovine serum; the medium was changed the day before experiment. The cells were from 70-90% confluent at the time of the experiment. On the day of the experiment, the incubation medium was removed and the cells were washed with fresh serum-free RPMI 1640 containing 0.1% bovine serum albumin (serum-free medium). One ml DMEM complete with 1 mM 3-isobutyl-1-methylxanthine (Sigma) was added and the plates were placed at 37° C. and 5.0% CO2 for 15 minutes before initiation of the experiment. Fresh compounds were acquired and dissolved as 10 mM solutions in DMSO. A further 1:10 dilution was prepared in DMEM and after the incubation period, the compounds were added to the wells at 30 μM final concentration. The final concentration of DMSO was always 0.3%. The wells were treated with or without GLP-1 (3 nM). The plates were then incubated at 37° C. and 5.0% CO2 for 15 minutes. […] The solution was mixed well and quantitatively transferred to microcentrifuge tubes with 1 wash of 0.5 ml of the 50 mM NaOH solution. […]

T1 sequence (P43220 24-463): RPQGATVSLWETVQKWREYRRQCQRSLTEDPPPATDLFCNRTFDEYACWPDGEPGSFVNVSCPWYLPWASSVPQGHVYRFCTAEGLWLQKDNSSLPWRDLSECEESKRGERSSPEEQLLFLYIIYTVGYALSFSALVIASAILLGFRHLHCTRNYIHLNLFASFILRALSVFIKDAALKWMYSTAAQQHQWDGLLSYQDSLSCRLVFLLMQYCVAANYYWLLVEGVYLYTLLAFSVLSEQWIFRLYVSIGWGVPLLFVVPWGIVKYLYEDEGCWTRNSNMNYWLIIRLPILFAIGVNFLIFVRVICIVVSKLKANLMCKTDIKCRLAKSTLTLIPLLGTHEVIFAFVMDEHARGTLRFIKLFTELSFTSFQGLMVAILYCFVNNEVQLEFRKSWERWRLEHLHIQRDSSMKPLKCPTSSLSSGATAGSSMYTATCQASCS

## Cc1nn(C)c(/C=C/Nc2ccc(F)cc2)c1[N+](=O)[O-] [Compound B, 4-fluoro-1-{[(E)-2-(1,3-dimethyl-4-nitro-1H-pyrazol-5-yl)ethenyl]amino}benzene]
RIN-m5F cells
  GLP-1 induced insulin release: substantial reduction of the GLP-1 induced insulin release

## Cc1nn(C)c(/C=C/Nc2cc(Cl)ccc2O)c1[N+](=O)[O-] [Compound A, 4-chloro-2-{[(E)-2-(1,3-dimethyl-4-nitro-1H-pyrazol-5-yl)ethenyl]amino}phenol]
Human GLP-1 receptor
  pKi: ~6.00
RIN-m5F cells
  GLP-1 induced insulin release: substantial reduction of the GLP-1 induced insulin release
[1]
  GLP-1 stimulated cAMP production: concentration dependently decreased GLP-1 stimulated cAMP production to a level close to that obtained in the absence of GLP-1

## COc1ccc(N/C=C/c2c([N+](=O)[O-])c(C)nn2C)c(OC)c1 [Compound D, 2,4-dimethoxy-1-{[(E)-2-(1,3-dimethyl-4-nitro-1H-pyrazol-5-yl)ethenyl]amino}benzene]
RIN-m5F cells
  GLP-1 induced insulin release: substantial reduction of the GLP-1 induced insulin release

## Cc1nn(C)c(/C=C/Nc2ccc(OC(F)(F)F)cc2)c1[N+](=O)[O-] [Compound C, 4-trifluoromethoxy-1-{[(E)-2-(1,3-dimethyl-4-nitro-1H-pyrazol-5-yl)ethenyl]amino}benzene]
RIN-m5F cells
  GLP-1 induced insulin release: substantial reduction of the GLP-1 induced insulin release

## Glucagon-like peptide 1(7-36)amide [GLP-1, reference compound]
RIN-m5F cells; in the presence of 3 nM GLP-1 alone, 1 h (medium 6.3±1.4 ng/ml)
  insulin release: 10.5 ± 1.4 ng/mL

Source: patent publication US6573291B2, “Method and use” (Biovitrum AB, priority 2000, dated 2003)
